Results published in patent US20080312192A1, “Diaryl Urea Derivatives in the Treatment of Protein Kinase Dependent Diseases” (priority 2003, published 2008).

Target: T1, RET (Homo sapiens, UniProt P07949)
T1 construct: expresses the amino acid region 658-1072 (Swiss prot No. Q9BTB0); made in house; host or cells: Sf9 insect cells (baculovirus, vector pFB-GSTX3)
T1 sequence (P07949 658-1072 isoform P07949-2): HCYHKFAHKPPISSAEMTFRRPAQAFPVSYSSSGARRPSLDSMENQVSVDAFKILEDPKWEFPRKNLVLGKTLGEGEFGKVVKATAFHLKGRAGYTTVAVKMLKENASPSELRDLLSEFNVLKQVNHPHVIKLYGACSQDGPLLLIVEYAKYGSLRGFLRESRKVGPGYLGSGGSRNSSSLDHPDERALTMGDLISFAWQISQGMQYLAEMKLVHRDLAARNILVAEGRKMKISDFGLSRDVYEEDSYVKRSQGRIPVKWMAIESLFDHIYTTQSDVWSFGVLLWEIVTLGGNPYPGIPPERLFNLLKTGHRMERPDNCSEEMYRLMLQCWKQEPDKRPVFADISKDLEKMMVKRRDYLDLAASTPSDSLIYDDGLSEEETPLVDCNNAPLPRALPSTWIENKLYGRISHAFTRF
Test: RET kinase inhibition (33P incorporation into poly(Glu,Tyr), GST-wtRET or GST-RET-Men2B)
Type: biochemical
Description: RET kinase inhibition is determined as follows:
The coding sequence for the cytoplasmic domain of wtRET is amplified by PCR from a cDNA library using specific primers. RET-Men2B is generated through site-directed mutagenesis resulting in the M918T mutation. The amplified DNA fragments and the pFB-GSTX3 vector are made compatible for ligation by digestion with SalI and KpnI. Ligation of these DNA fragments results in the baculovirus donor plasmids […] and pFB-GX3-RET-Men2B, respectively.
Production of virus: The baculovirus donor plasmids containing the kinase domains are transfected into the DH10Bac cell line (GIBCO) and the transfected cells are plated on selective agar plates. Colonies without insertion of the fusion sequence into the viral genome (carried by the bacteria) are blue. Single, white colonies are picked and viral DNA (bacmid) is isolated from the bacteria by standard plasmid purification procedures. Sf9 cells or Sf21 cells (American Type Culture Collection) are then transfected in 25 cm^2 flasks with the viral DNA using Cellfectin reagent.
Protein expression in Sf9 cells: Virus-containing media is collected from the transfected cell culture and used for infection to increase its titer. Virus-containing media obtained after two rounds of infection is used for large-scale protein expression. For large-scale protein expression 100 cm^2 round tissue culture plates are seeded with 5×10^7 cells/plate and infected with 1 mL of virus-containing media (approximately 5 MOIs). After 3 days, the cells are scraped off the plate and centrifuged at 500 rpm for 5 minutes. Cell pellets from 10-20, 100 cm^2 plates are re-suspended in 50 mL of ice-cold lysis buffer (25 mM Tris-HCl, pH 7.5, 2 mM EDTA, 1% NP-40, 1 mM DTT, 1 mM PMSF). The cells are stirred on ice for 15 minutes and then centrifuged at 5,000 rpms for 20 minutes.
Purification of GST-tagged proteins: The centrifuged cell lysate is loaded onto a 2 mL glutathione-sepharose column (Pharmacia) and washed 3× with 10 mL of 25 mM Tris-HCl, pH 7.5, 2 mM EDTA, 1 mM DTT, 200 mM NaCl. The GST-tagged proteins are then eluted by 10 applications (1 mL each) of 25 mM Tris-HCl, pH 7.5, 10 mM reduced-glutathione, 100 mM NaCl, 1 mM DTT, 10% glycerol and stored at −70° C.
Measure of enzyme activity: Tyrosine protein kinase assays with either purified GST-wtRET or GST-RET-Men2B protein are carried out in a final volume of 30 μL containing 15 ng of either GST-RET or GST-RET-Men2B protein, 20 mM Tris-HCl, pH 7.5, 1 mM MnCl2, 10 mM MgCl2, 1 mM DTT, 3 μg/mL poly(Glu, Tyr) 4:1, 1% DMSO, 2.0 μM ATP (γ-[^33P]-ATP 0.1 μCi). The activity is assayed in the presence or absence of inhibitors, by measuring the incorporation of ^33P from [γ^33P] ATP into poly(Glu, Tyr) 4:1. […] Subsequently, 40 μL of the reaction mixture are transferred onto Immobilon-PVDF membrane (Millipore) previously soaked for 5 minutes with methanol, rinsed with water, then soaked for 5 minutes with 0.5% H3PO4 and mounted on vacuum manifold with disconnected vacuum source. After spotting all samples, vacuum is connected and each well rinsed with 200 μL 0.5% H3PO4. Membranes are removed and washed 4× on a shaker with 1.0% H3PO4, once with ethanol. Membranes are counted after drying at ambient temperature, mounting in Packard TopCount 96-well frame, and addition of 10 μl/well of Microscint™ (Packard). […] One unit of protein kinase activity is defined as 1 nmole of ^33P transferred from [γ^33P] ATP to the substrate protein/minute/mg of protein at 37° C.

Row | SMILES | IC50
1 | Nc1cc(Oc2ccc(NC(=O)Nc3cc(CN4CCC4)cc(C(F)(F)F)c3)cc2)ncn1 [Example 4, N-[4-(6-Amino-pyrimidin-4-yloxy)-phenyl]-N′-(3-azetidin-1-ylmethyl-5-trifluoromethyl-phenyl)-urea] | 83 nM
2 | CNc1cc(Oc2ccc(NC(=O)Nc3cc(CN4CCN(C(C)C)CC4)cc(C(F)(F)F)c3)cc2)ncn1 [Example 6, N-[4-(6-Methylamino-pyrimidin-4-yloxy)-phenyl]-N′-[3-(4-isopropylpiperazin-1-ylmethyl)-5-trifluoromethyl-phenyl]-urea] | 960 nM
3 | CC(C)N1CCN(Cc2ccc(NC(=O)Nc3ccc(Oc4cc(N)ncn4)cc3)cc2C(F)(F)F)CC1 [Example 19, N-[4-(6-Amino-pyrimidin-4-yloxy)-phenyl]-N′-[4-(4-isopropylpiperazin-1-ylmethyl)-3-trifluoromethyl-phenyl]-urea] | 550 nM
4 | CC(C)(C)N1CCN(Cc2ccc(NC(=O)Nc3ccc(Oc4ccnc(N)n4)cc3)cc2C(F)(F)F)CC1 [Example 50] | 560 nM
5 | Cc1ncn(Cc2ccc(NC(=O)Nc3ccc(Oc4ccnc(N)n4)cc3)cc2C(F)(F)F)c1C [Example 51a.1, 1-[4-(2-Amino-pyrimidin-4-yloxy)-phenyl]-3-(4-(4,5-dimethyl-imidazol-1-ylmethyl)-3-trifluoromethyl-phenyl]-urea] | 850 nM
6 | CN1CCN(Cc2ccc(NC(=O)Nc3ccc(Oc4ccnc(N)n4)cc3)cc2C(F)(F)F)CC1 [Example 52a, 1-[4-(2-amino-pyrimidin-4-yloxy)-phenyl]-3-[4-(4-methylpiperazin-1-ylmethyl)-3-trifluoromethyl-phenyl]-urea] | 180 nM
7 | CCN1CCN(Cc2ccc(NC(=O)Nc3ccc(Oc4ccnc(N)n4)cc3)cc2C(F)(F)F)CC1 [Example 52c, 1-[4-(2-Amino-pyrimidin-4-yloxy)-phenyl]-3-[4-(4-ethyl-piperazin-1-ylmethyl)-3-trifluoromethyl-phenyl]-urea] | 310 nM
8 | CNc1nccc(Oc2ccc(NC(=O)Nc3cc(N4CCN(C)CC4)cc(C(F)(F)F)c3)cc2)n1 [Example 53b, 1-[4-(2-Methylamino-pyrimidin-4-yloxy)-phenyl]-3-[3-(4-methyl-piperazin-1-yl)-5-trifluoromethyl-phenyl]-urea] | 450 nM
9 | CNc1nccc(Oc2ccc(NC(=O)Nc3ccc(N4CCN(C)CC4)c(C(F)(F)F)c3)cc2)n1 [Example 53d, 1-[4-(2-Methylamino-pyrimidin-4-yloxy)-phenyl]-3-[4-(4-methyl-piperazin-1-yl)-3-trifluoromethyl-phenyl]-urea] | 450 nM
